Data on four molecules can be found in patent US4079134A, “7-Acylamino-3-(5-sulfomethyl-1,3,4-thiadiazol-2-y lthiomethyl)-3-cephem-4-carboxylic acids” (SmithKline Corporation, priority 1976, dated 1978).

The test system of one experiment is E. coli HH 33779. Description: MIC in vitro. It counts as cell-based. As to conditions: Escherichia coli. As to the method: (§1) The compounds of Formula I have antibacterial activity against either Gram positive or Gram negative bacteria with minimum inhibitory concentrations (MIC's) in vitro from 0.4 to 200 μg/ml. Test results for 7-D-mandelamido-3-(5-sulfomethyl-1,3,4-thiadiazol-2-ylthiomethyl)-3-cephem-4-carboxylic acid, disodium salt, tetrahydrate (A) are: […]

The next experiment has as its system E. coli SK 12140. Description: MIC in vitro. As to conditions: Escherichia coli. It counts as cell-based. On the procedure: as §1
In experiment [1] the test system is Entero. aerog. ATCC 13048. Description: MIC in vitro. Type of experiment: cell-based. As to conditions: read-out: minimum inhibitory concentration (MIC). On the procedure:
as §1

In another experiment the test system is Entero. cloacae HH 31254. Nature of the experiment: MIC in vitro. It counts as cell-based. As to conditions: Enterobacter cloacae, HH31254, read-out: minimum inhibitory concentration (MIC). On the procedure:
as §1

The next experiment concerns Kleb. pneumo. SK 1200. Nature of the experiment: MIC in vitro. Type of experiment: cell-based. As to conditions: read-out: minimum inhibitory concentration (MIC). On the procedure: as §1
The test system of another experiment is Kleb. pneumo. SK 4200. Nature of the experiment: MIC in vitro. It counts as cell-based. As to conditions: read-out: minimum inhibitory concentration (MIC). As to the method: as §1
The subject of the next experiment is Proteus mirabilis PN-444. Description: MIC in vitro. It counts as cell-based. On the procedure:
as §1

The next experiment relates to Proteus morgani 179. Description: MIC in vitro. Type of experiment: cell-based. As to conditions: read-out: minimum inhibitory concentration (MIC). As to the method: as §1
A further experiment has as its system Pseudo. aeru. HH 63. Description: MIC in vitro. As to conditions: read-out: minimum inhibitory concentration (MIC). Type of experiment: cell-based. As to the method:
as §1

The subject of another experiment is S. aureus HH 127. Nature of the experiment: MIC in vitro. Type of experiment: cell-based. As to conditions: Staphylococcus aureus. On the procedure: as §1
The next experiment has as its system S. aureus SK 23390. Nature of the experiment: MIC in vitro. Type of experiment: cell-based. As to conditions: Staphylococcus aureus. On the procedure: as §1
Experiment [2] relates to S. aureus villaluz SK 70390. Description: MIC in vitro. Type of experiment: cell-based. As to conditions: Staphylococcus aureus, read-out: minimum inhibitory concentration (MIC). As to the method: as §1
The next experiment relates to Salmonella ATCC 12176. Description: MIC in vitro. Type of experiment: cell-based. As to conditions: ATCC12176, read-out: minimum inhibitory concentration (MIC). As to the method: as §1
Experiment [3] has as its system Serratia marc. ATCC 13880. Description: MIC in vitro. It counts as cell-based. As to conditions: ATCC13880, read-out: minimum inhibitory concentration (MIC). On the procedure:
as §1

A further experiment deals with Strep. Faecalis HH 34358. Nature of the experiment: MIC in vitro. It counts as cell-based. As to conditions: Enterococcus faecalis, read-out: minimum inhibitory concentration (MIC). As to the method: as §1
The test system of the next experiment is E. coli. Nature of the experiment: ED50 in infected mice. Type of experiment: in vivo. As to conditions: two determinations; for ED50: Escherichia coli, read-out: ED50 in mice against E. coli.
A further experiment concerns Kleb. pneumo. Description: ED50 in infected mice. Type of experiment: in vivo. As to conditions: two determinations; for ED50: Mus musculus, read-out: ED50 in mice against Kleb. pneumo. On the procedure:
(s.c.); 25 and 10 mg/kg against E. coli as well as 8.7 and 8.5 mg/kg against Kleb. pneumo. (p.o.).

Where [4] appears, read: HH33779, in vitro, E. coli HH 33779, read-out: minimum inhibitory concentration (MIC).
[5] abbreviates: SK12140, in vitro, E. coli SK 12140, read-out: minimum inhibitory concentration (MIC).
[6] abbreviates: PN444, in vitro, Proteus mirabilis PN-444, read-out: minimum inhibitory concentration (MIC).
Where [7] appears, read: HH127, in vitro, S. aureus HH 127, read-out: minimum inhibitory concentration (MIC).
Where [8] appears, read: SK23390, in vitro, S. aureus SK 23390, read-out: minimum inhibitory concentration (MIC).
Setting [9] is: in vitro, S. aureus villaluz SK 70390.

Values after ≈ are worked out from the molar mass of the structure shown. Structures can show the parent of a compound that is named as a salt. Where two headings read alike, the source gives them in different places.

As for `O=C(O)C1=C(CSc2nnc(CS(=O)(=O)O)s2)CS[C@@H]2[C@H](NC(=O)[C@H](O)c3ccccc3)C(=O)N12` [Compound A, 7-D-mandelamido-3-(5-sulfomethyl-1,3,4-thiadiazol-2-ylthiomethyl)-3-cephem-4-carboxylic acid, disodium salt, tetrahydrate], the MIC with E. coli HH 33779 (setting [4]) came to 0.8 µg/mL; in the experiment with E. coli SK 12140 (setting [5]), 0.4 µg/mL; in [1], 1.6 µg/mL; with Entero. cloacae HH 31254 it was 0.4 µg/mL; in the experiment with Kleb. pneumo. SK 1200 it was 0.4 µg/mL; in the experiment with Kleb. pneumo. SK 4200, 0.4 µg/mL. The MIC with Proteus mirabilis PN-444 (setting [6]) is 0.4 µg/mL; in the experiment on Proteus morgani 179 (in vitro, Proteus morgani 179), 1.6 µg/mL; with Pseudo. aeru. HH 63, > 200 µg/mL; in the experiment with S. aureus HH 127 (setting [7]) it was 1.6 µg/mL; with S. aureus SK 23390 (setting [8]), 0.4 µg/mL; in [2] (setting [9]), 200 µg/mL. The MIC was determined as 0.4 µg/mL with Salmonella ATCC 12176, 25 µg/mL in experiment [3] and 25 µg/mL in the experiment on Strep. Faecalis HH 34358. In addition, the values for the ED50 in the experiment on E. coli (sc), in the experiment on Kleb. pneumo. (po) and with Kleb. pneumo. (sc) were 0.3 mg/kg, 8.7 mg/kg and 0.78 mg/kg, respectively. Moreover, the “ED50 in mice against E. coli” value in the experiment on E. coli (s.c.) turned out to be 0.39 mg/kg. Besides, the “ED50 in mice against Kleb. pneumo.” value with Kleb. pneumo. (p.o.) was found to be 8.5 mg/kg; in the experiment with Kleb. pneumo. (s.c.), 0.62 mg/kg.
In the case of `CC(=O)OCC1=C(C(=O)O)N2C(=O)[C@@H](NC(=O)Cc3cccs3)[C@H]2SC1` [Cephalothin], the MIC amounted to 6.3 µg/mL (≈ 15.9 µM) in the experiment with E. coli HH 33779 (HH33779, read-out: minimum inhibitory concentration (MIC)); 3.1 µg/mL (≈ 7.82 µM) in the experiment with E. coli SK 12140 (SK12140, read-out: minimum inhibitory concentration (MIC)); 12.5 µg/mL (≈ 31.5 µM) in experiment [1]; 6.3 µg/mL (≈ 15.9 µM) in the experiment with Entero. cloacae HH 31254; 1.6 µg/mL (≈ 4.04 µM) in the experiment on Kleb. pneumo. SK 1200; 1.6 µg/mL (≈ 4.04 µM) with Kleb. pneumo. SK 4200. Moreover, the MIC in the experiment on Proteus mirabilis PN-444 (Proteus mirabilis, PN444, read-out: minimum inhibitory concentration (MIC)) was 0.8 µg/mL (≈ 2.02 µM); with Proteus morgani 179 it was > 200 µg/mL; with Pseudo. aeru. HH 63, > 200 µg/mL; with S. aureus HH 127 (HH127, read-out: minimum inhibitory concentration (MIC)), 0.4 µg/mL (≈ 1.01 µM); in the experiment on S. aureus SK 23390 (SK23390, read-out: minimum inhibitory concentration (MIC)), 0.1 µg/mL (≈ 0.252 µM); in experiment [2], 50 µg/mL (≈ 126 µM). Moreover, the MIC in the experiment with Salmonella ATCC 12176 was 1.6 µg/mL (≈ 4.04 µM); in [3] it was > 200 µg/mL; in the experiment with Strep. Faecalis HH 34358, 6.3 µg/mL (≈ 15.9 µM).
Take `Cc1nnc(SCC2=C(C(=O)O)N3C(=O)[C@@H](NC(=O)Cn4cnnn4)[C@H]3SC2)s1` [Cefazolin]: the MIC turned out to be 1.6 µg/mL (≈ 3.52 µM) with E. coli HH 33779 (setting [4]); 0.8 µg/mL (≈ 1.76 µM) in the experiment on E. coli SK 12140 (setting [5]); 1.6 µg/mL (≈ 3.52 µM) in [1]; 0.8 µg/mL (≈ 1.76 µM) in the experiment on Entero. cloacae HH 31254; 0.8 µg/mL (≈ 1.76 µM) in the experiment on Kleb. pneumo. SK 1200; 1.6 µg/mL (≈ 3.52 µM) with Kleb. pneumo. SK 4200. The MIC with Proteus mirabilis PN-444 (setting [6]) was 3.1 µg/mL (≈ 6.82 µM); in the experiment with Proteus morgani 179 (in vitro, Proteus morgani 179), > 200 µg/mL; in the experiment with Pseudo. aeru. HH 63, > 200 µg/mL; in the experiment on S. aureus HH 127 (setting [7]), 0.4 µg/mL (≈ 0.88 µM); in the experiment on S. aureus SK 23390 (setting [8]) it was 0.2 µg/mL (≈ 0.44 µM); in experiment [2] (setting [9]), 100 µg/mL (≈ 220 µM). Also, the MIC in the experiment with Salmonella ATCC 12176 was 0.8 µg/mL (≈ 1.76 µM); in experiment [3], > 200 µg/mL; in the experiment on Strep. Faecalis HH 34358, 6.3 µg/mL (≈ 13.9 µM).
Turning to `CC1=C(C(=O)O)N2C(=O)[C@@H](NC(=O)[C@H](N)c3ccccc3)[C@H]2SC1` [Cephalexin], the ED50 in the experiment with E. coli (po) came out at 21.5 mg/kg; in the experiment with E. coli (sc) it was 12.5 mg/kg; in the experiment with Kleb. pneumo. (po), 19 mg/kg; in the experiment with Kleb. pneumo. (sc), 16.5 mg/kg. In addition, in the experiment with E. coli (p.o.), the “ED50 in mice against E. coli” value came to 18 mg/kg. Further, in the experiment with Kleb. pneumo. (p.o.), the “ED50 in mice against Kleb. pneumo.” value is given as 10 mg/kg.
